The values below come from PubChem BioAssay AID489022 (Sanford-Burnham Center for Chemical Genomics, 2010).

Active and inactive are the calls of the source. No rule for the calls is given here.

The test system of this assay is HEK-293T NF-kB luciferase reporter, luminescence counterscreen. Nature of the assay: inhibitors of NF-kB luciferase reporter, HEK-293T, dose response, counter-screen for BCR NF-kB inhibitor project, luminescence, B-cell screen hits (AID 489022). On the technique in general: Reporter assays use an easily measured gene product as a stand-in for the process of interest.
As usually defined, the IC50 is the midpoint of a concentration-inhibition curve. On to `O=C(NNC(=O)c1ccccc1O)c1ccc(Cl)c(S(=O)(=O)N2CCc3ccccc32)c1`, for which the IC50 is 0.47 µM. Then `CCOCCCNc1nc2c(C)cccn2c(=O)c1/C=C1\SC(=S)N(C(C)CC)C1=O` (stereo unspecified), with > 80 µM (inactive). To `Cc1ccccc1-n1c(SCc2c(C)noc2C)nnc1-c1c[nH]c2ccccc12` belongs 33.8 µM (inactive); to `CCCS(=O)(=O)Nc1cccc(-c2ccc3nnc(C)n3n2)c1`, > 80 µM (inactive); to `CCn1c(=O)cc(SCC(=O)N2CCN(C(=O)c3ccco3)CC2)c2ccccc21`, 40.9 µM (inactive).

In the case of `COc1ccc(/C=C2/SC(=S)N(CCCC(=O)Nc3cccc(O)c3)C2=O)cc1`, the IC50 was 27.5 µM (inactive).

As to `O=C(CCCN1C(=O)S/C(=C\C=C\c2ccccc2)C1=O)Nc1ccc(O)cc1`, the IC50 was > 80 µM (inactive). `Cc1ccc(S(=O)(=O)Nc2ccc3c(c2)n(C)c(=O)n3C)cc1`: the IC50 is 65.2 µM (inactive). Then `CCn1c(=O)cc(OCC(=O)Nc2ccc(OC)c(OC)c2)c2ccccc21`, with 70.3 µM (inactive). Then `CN(C)CCCN=Cc1c(-c2ccccc2)[nH]n(-c2nc3ccccc3s2)c1=O`, with > 80 µM (inactive). Consider `Cc1cnc(NC(=O)Nc2ccc(Cl)cc2)s1`, for which the IC50 is > 80 µM (inactive). To `CCOC(=O)C(=CNc1cc(C)ccc1C)C(=O)OCC` belongs 18.9 µM; to `Cc1cc(OCC(=O)NC2CC2)c2c(C)c(C)c(=O)oc2c1`, > 80 µM (inactive); to `C=CCOC(=O)COc1cc(C)cc2oc(=O)c3c(c12)CCC3`, > 80 µM (inactive). To `COc1ccccc1/C=C1/SC(=S)N(CCC(=O)Nc2cccnc2)C1=O` belongs 37 µM (inactive). To `O=C1CCC2S/C(=C/Nc3ccc(C(F)(F)F)cc3)C(=O)N12` (stereo unspecified) belongs 3.77 µM; to `CSc1ccc(-c2nc(CSCC(=O)NC3CC3)c(C)o2)cc1`, 37.7 µM (inactive). Regarding `CC(C)(C)c1ccc(-c2cc(N)n[nH]2)cc1`, the IC50 is > 80 µM (inactive).

Turning to `Cc1ccc(C(=O)CSc2nnc(COc3ccccc3)o2)cc1`, the IC50 is 40.9 µM (inactive). `CCN(CC(=O)Nc1c(F)cccc1F)C(=O)c1cc(S(=O)(=O)N(C)C)ccc1N1CCCC1`: the IC50 was > 80 µM (inactive). To `COc1ccc(-c2csc3nc(-c4cccnc4)nc(N4CCC(C(N)=O)CC4)c23)cc1OC` belongs 9.06 µM. Then `COc1cc(-c2[nH]nc3c2C(c2ccco2)C(C#N)=C(N)O3)cc(OC)c1OC` (stereo unspecified), with > 80 µM (inactive); and `CC1CC(C)(C)Nc2ccc(OC(=O)c3ccco3)cc21` (stereo unspecified), with 8.89 µM.

`O=C1CCCc2c1[nH]c1ccc(CN3CCCCC3)cc21`: the IC50 was > 80 µM (inactive). Then `CC1=CC(C)(C)Nc2ccc(OC(=O)CN3C(=O)CCC3=O)cc21`, with 11.1 µM. To `CCOc1ccc(-c2cc(CCCC(=O)NCCCOC)no2)cc1` belongs 60 µM (inactive).

`COc1ccc(NC(=O)c2cc(-c3ccccn3)nc3ccccc23)cc1S(=O)(=O)N(C)C`: the IC50 was 51.4 µM (inactive). To `COc1cc(-c2nc3ccc(N4CCN(C)CC4)cc3[nH]2)cc(OC)c1OC` belongs > 80 µM (inactive). To `Cn1cnc([N+](=O)[O-])c1Sc1ccc([N+](=O)[O-])cc1` belongs > 80 µM (inactive). To `Cn1c(=O)n(C)c2cc(NC(=O)CSc3nnc(-c4ccccc4O)n3-c3ccccc3)ccc21` belongs 18.2 µM.

As for `Cc1ccc(C(=O)NNC(=O)CCCN2C(=O)/C(=C/c3ccccc3Cl)SC2=S)cc1`, the IC50 is 30.8 µM (inactive). Then `CCc1cccc(NC(=O)c2ccc(CNc3c(N4CCCC4)c(=O)c3=O)cc2)c1`, with > 80 µM (inactive); and `CCN1CCN(C(=O)CSc2cc(=O)n(CC)c3ccccc23)CC1`, with > 80 µM (inactive); and `CCc1ccc(/C=C2\SC(=S)N(CCCC(=O)Nc3ccccn3)C2=O)cc1`, with > 80 µM (inactive). Then `CCc1sc(C(=O)Nc2cccc(-n3cnnn3)c2)cc1C`, with > 80 µM (inactive); and `Oc1cc(O)cc(-c2cc3ccc(O)cc3o2)c1`, with > 80 µM (inactive); and `Cc1ccc(-n2c(-c3ccccc3)c[n+]3c2CCc2ccccc2-3)c(C)c1`, with 2.15 µM. To `CCc1ccc(/C=C2\SC(=S)N(CCC(=O)NC3=NCCS3)C2=O)cc1` belongs > 80 µM (inactive); to `COc1ccc(C(=O)N/N=C/c2ccc(OC)c(CN3CCCc4ccccc43)c2)cc1`, > 80 µM (inactive). In the case of `Cc1ccc(Sc2cc(NCCCO)c([N+](=O)[O-])c3nonc23)cc1`, the IC50 was > 80 µM (inactive). In the case of `COCCCNC(=O)COc1ccc(-c2nccc(-c3ccccn3)n2)cc1`, the IC50 was 48.1 µM (inactive).

With `COc1ccc(NC(=S)NCc2ccccc2)c(OC)c1`, the IC50 is > 80 µM (inactive).

In the case of `CC(C)OCCCNC(=O)c1c(N)n(/N=C/c2ccccn2)c2nc3ccccc3nc12`, the IC50 is > 80 µM (inactive). Then `COc1ccc(C(=O)Nc2cccc(NC(=O)c3ccc(OC)c(OC)c3)n2)cc1OC`, with 15.4 µM; and `COc1ccc(-c2nn(C)c(=O)c3ccccc23)cc1NS(C)(=O)=O`, with 43.9 µM (inactive); and `CCc1ccc(/C=C2/SC(=S)N(CCC(=O)Nc3ccc(C(=O)O)cc3)C2=O)cc1`, with > 80 µM (inactive). For the molecule `COc1ccc(Cc2nc(-c3ccc(NC(=O)c4cccnc4)cc3)no2)cc1`, the IC50 is > 80 µM (inactive). Then `NC(=S)N=Nc1c(O)n(Cc2ccccc2)c2ccccc12`, with > 80 µM (inactive); and `COc1cc(C[C@@H]2C(=O)OC[C@H]2Cc2ccc(OC)c(OC)c2)ccc1O`, with 0.66 µM.

With `CCC(C)NC(=O)c1c(N)n(/N=C/c2ccccn2)c2nc3ccccc3nc12` (stereo unspecified), the IC50 was 34.8 µM (inactive). Then `Cc1noc(C)c1CSc1nc2[nH]ncc2c(=O)n1-c1ccccc1`, with 7.74 µM; and `COc1ccc(/C=C2\SC(=S)N(CCC(=O)Nc3ccc(C(=O)O)cc3)C2=O)cc1OC`, with > 80 µM (inactive); and `COc1ccc(-c2noc(N3CCC(C(=O)Nc4ccc(F)cc4F)CC3)n2)cc1`, with > 80 µM (inactive). To `Cc1nc2cc(-c3ccc(Cl)cc3)nn2c(C)c1CCC(=O)NCc1ccco1` belongs > 80 µM (inactive); to `Cn1c(=O)n(C)c2cc(C(=O)Nc3ccc4c(c3)OCO4)ccc21`, > 80 µM (inactive). To `Cc1nc2cc(-c3cccc(F)c3)nn2c(C)c1CCC(=O)N1CCC2(CC1)OCCO2` belongs 34 µM (inactive); to `CCN1C(=O)Nc2cccc3cccc1c23`, 17.8 µM.

Take `Cc1cc(=O)[nH]c2c(C)cc(S(=O)(=O)N3CCCCC3)cc12`: the IC50 is > 80 µM (inactive).

As for `CC(C)c1[nH]nc2c1C(c1ccco1)C(C#N)=C(N)O2` (stereo unspecified), the IC50 is > 80 µM (inactive). Then `Cc1ccc(/C=C2/SC(=S)N(CCCC(=O)Nc3ccc(O)cc3)C2=O)cc1`, with > 80 µM (inactive).

As to `COc1ccc(/C=C2\SC(=S)N(CCC(=O)Nc3ccc(C(=O)O)cc3)C2=O)cc1`, the IC50 was > 80 µM (inactive).

Take `CCOC(=O)CNC(=O)CSc1nnc(NC(=O)c2ccc(C)cc2)s1`: the IC50 was 7.13 µM. Take `Nc1ccccc1SCC(=O)Nc1nc(-c2ccccc2)cs1`: the IC50 was 11.8 µM. `C(=N\Nc1nc(Nc2ccccc2)nc(N2CCOCC2)n1)/c1c[nH]c2ccccc12`: the IC50 was 53 µM (inactive). To `CC(C)(C)c1ccc(-c2noc(CCC(N)=O)n2)cc1` belongs 0.27 µM; to `CC(C)c1ccc(/C=C2\SC(=S)N(CCC(=O)NCCCn3ccnc3)C2=O)cc1`, 50.2 µM (inactive); to `CCN(CC)CCOC(=O)c1ccc(NC(=O)COc2cc(=O)n(CC)c3ccccc23)cc1`, 43.8 µM (inactive). `COc1ccc(C(=O)Nc2ccc(OC)c([N+](=O)[O-])c2)cc1Br`: the IC50 is > 80 µM (inactive). To `O=C(O)CCn1c(O)c(C=C2N=c3ccccc3=N2)sc1=S` belongs 70.8 µM (inactive); to `COc1ccc(NC(=O)CN(C)C(=O)C2(c3ccccc3)CCCC2)cc1`, 21.3 µM (inactive). Then `CN(C)c1cc[n+](Cc2c(Cl)cccc2Cl)cc1`, with 9.88 µM; and `ClCc1nnc(-c2ccccc2)o1`, with > 80 µM (inactive). Then `CCCCCC/C=C/c1ccc(OC)c([C@H]2[C@H]3C=CC[C@@H](C)[C@@H]3C(=O)N2Cc2ccccc2)c1`, with > 80 µM (inactive); and `Cc1ccc(Nc2nc(N3CCOCC3)nc(N3CCOCC3)n2)cc1C`, with 51.4 µM (inactive); and `NNC(=O)COc1ccc(-c2nccc(-c3ccc(F)cc3)n2)cc1`, with 42.3 µM (inactive). Consider `CCc1ccc(-c2nnn(CCC(=O)OC)n2)cc1`, for which the 50% inhibitory concentration (IC50) is 0.6 µM. Then `O=C(O)CCSc1ncnc2sc(-c3ccccc3)cc12`, with 11.8 µM. On to `Cc1ccc(-c2cn(-c3ccccc3)c3[n+]2CCCS3)cc1`, for which the IC50 was 4.88 µM. Then `CCOc1ccc(-c2nc(CSCC(=O)NC3CC3)c(C)o2)cc1`, with > 80 µM (inactive). Regarding `Cc1c(CCC(=O)NCCCn2ccnc2)c(=O)oc2c(C)c3oc4c(c3cc12)CCCC4`, the IC50 was 6.65 µM. Then `COc1ccc(C2=NCc3nnc(C)n3-c3ccc(Cl)cc32)cc1Cl`, with > 80 µM (inactive).

Regarding `CCOC(=O)Cc1csc(NC(=S)NC(=O)c2ccc(C)cc2)n1`, the IC50 is > 80 µM (inactive). Then `COc1ccc(OCc2cccc(C(=O)Nn3cc([N+](=O)[O-])cn3)c2)cc1`, with 11.9 µM. Then `Cc1ccc(-c2nn3c(C)nnc3c3ccccc23)cc1S(=O)(=O)NC(C)(C)CO`, with 27.6 µM (inactive). Then `CCOC(=O)/C=C(\C)Sc1cc(=O)oc2ccccc12`, with 10.5 µM; and `Cn1nc(-c2ccc(Cl)cc2)c2cc(C(=O)N3CCCC3)sc21`, with 3.75 µM.
